Consider one compound from publication PMC3790851, “Improved Mass Spectrometry Assay For Plasma Hepcidin: Detection and Characterization of a Novel Hepcidin Isoform” (PLoS ONE, 2013).

One series is described as follows: in vitro. The conditions noted are these: for remaining at 4320 h: human. The procedure: Serum samples from healthy controls that were used in this study concerned leftover aliquots (stored at −80°C) that were collected in February 2011 [18]. In addition, citrate plasma, heparin plasma, EDTA plasma and serum for stability studies was drawn in the afternoon from healthy volunteers (n = 5), known for having fasted morning hepcidin levels above the lower limit of detection (>0.5 nM) in September 2012. Fresh samples were measured within 2–4 hrs hours after blood drawing and stored in aliquots at various temperatures for prolonged incubation.
Heparin plasma QC samples (n = 2), high and low (HiQC2011 and LoQC2011), were obtained in November 2011 by pooling sample leftover samples from IC patients and iron-depleted HFE-hemochromatosis patients, respectively. Serum QC samples (n = 2), high and low (HiQC2009 and LoQC2009), were obtained in April 2009 from 2 blood donors from the local blood donation centre. To obtain the high QC sample, serum of one of the donors with a native hepcidin concentration <1 nM was spiked with synthetic hepcidin-25 from Peptide International (PI, Louisville, KY, USA) to a concentration of 9 nM.
WCX-TOF MS was performed between October 2011 and March 2013 as described previously by a combination of WCX bead-based hepcidin enrichment followed by TOF-MS [6]. As internal standards for quantification were used: i) synthetic hepcidin-24 (custom made Peptide International, 2673.9 Da; [5]); ii) novel custom made heavy hepcidin-25^+40 (see below, Table 1). Mass-to-charge (m/z) spectra were generated by using MALDI-TOF MS (Microflex LT, Bruker Daltonics). Spectra were analyzed by using Bruker Daltonics FlexAnalysis software. A detailed protocol of this method is described in [6]. Total hepcidin concentration was defined as the sum of hepcidin-25, -24, -22, and -20 concentrations.
Using the novel heavy hepcidin-25 internal standard, we assessed changes in hepcidin-25 and the smaller isoforms in various samples containing various anticoagulants ex vivo at room temperature (RT), 4°C, −20°C and −80°C. More specifically, changes in hepcidin concentrations relative to those found in freshly collected samples were determined i) at storage at RT and 4°C on day 0 (fresh samples), 1 (14–22 hrs), 2, 3, and 7 days after sampling/storage, ii) at −20°C after 1 week, and after 1, 4 and 6 months of storage and iii) at −80°C at after 6 months of storage. We also assessed the effect of the addition of protease inhibitors on the stability of hepcidin concentrations of heparin plasma of IC patients at RT during a 1 week storage. To this end, before storage we used 1 tablet of protease inhibitor (Complete, Mini, Roche Diagnostics, Mannheim, Germany) solved in 200 µL PBS, of which 20 µL was added to 1 ml plasma. Finally, we used our QC charts to assess the stability of hepcidin concentrations in heparin plasma and serum QC aliquots stored at −80°C for 2 years.

The conditions of series [1]: serum from 12 healthy controls; stable for; ref 35 Itkonen et al.; cited from earlier work.

Usually share remaining stands for the share of the starting amount still present when the sample was taken.

Turning to `CC[C@H](C)[C@@H]1NC(=O)[C@@H](NC(=O)[C@@H](NC(=O)[C@@H]2CCCN2C(=O)[C@H](Cc2ccccc2)NC(=O)[C@H](Cc2c[nH]cn2)NC(=O)[C@@H](NC(=O)[C@@H](N)CC(=O)O)[C@@H](C)O)[C@@H](C)CC)CSSC[C@@H](C(=O)N[C@@H](CCCCN)C(=O)N[C@H](C(=O)O)[C@@H](C)O)NC(=O)[C@@H]2CSSC[C@H](NC(=O)[C@H](Cc3ccccc3)NC1=O)C(=O)N[C@H]1CSSC[C@H](NC(=O)[C@H](CCCCN)NC(=O)[C@H](CO)NC(=O)[C@H](CCCNC(=N)N)NC(=O)[C@H](Cc3c[nH]cn3)NC(=O)[C@@H]3CSSC[C@H](NC(=O)CNC1=O)C(=O)N3)C(=O)NCC(=O)N[C@@H](CCSC)C(=O)N2` [Hepcidin-25], in “in vitro” (QC heparin plasma samples, heavy hepcidin internal standard), the “stable at -80°C for, QC heparin plasma” value is listed as “at least 1.5 years”. Besides, in the series “in vitro” (QC serum samples, former hepcidin-24 internal standard), the “stable at -80°C for, QC serum” value was found to be 2 years. Besides, in the series “in vitro” (average, 5 controls, CV 5), the “Hepcidin level after 6 months at -80°C, EDTA plasma” value is reported as 96% and the “Hepcidin level after 6 months at -80°C, citrate plasma” value is 96%. In the series “in vitro” (heparin plasma), the fraction remaining at 4320 h is 95%. The fraction remaining at 4320 h in “in vitro” (serum) was 94%. Also, the “average decrease in hepcidin-25 after 6 months at -80°C” value in the series “in vitro” (serum, heparin, EDTA and citrate plasma, 5 healthy volunteers, not significant) is reported as 4–6%. In series [1], the “stability at room temperature” value was 1 days.
